In brackets after ≈: the same amount, converted by molar mass. Read-outs that look alike come from different tables or passages of the source.
Experiments:
M. avium = assay: MIC against mycobacterial species; type: cell-based, Mycobacterium avium
M. gordonae = assay: MIC against mycobacterial species; type: cell-based; conditions: M. gordonae 324
M. phlei = assay: MIC against mycobacterial species; type: cell-based; conditions: M. phlei
M. chelonae = assay: MIC against mycobacterial species; type: cell-based; conditions: M. chelonae
M. microti = assay: microbe, parasite or virus in culture; type: cell-based
M. aurum = assay: MIC against mycobacterial species; type: cell-based; conditions: M. aurum
M. intracellulare = assay: MIC against mycobacterial species; type: cell-based
S. aureus = assay: microbe, parasite or virus in culture; type: cell-based, Staphylococcus aureus; conditions: strain ATCC 25923, WT
K. rhizophila = assay: microbe, parasite or virus in culture; type: cell-based, Kocuria rhizophila; conditions: WT
[1] = mice; cited from earlier work
[2] = Humans, oral, cited from earlier work
[3] = ivermectin: extra-label use; selamectin, moxidectin: therapeutic doses; cited from earlier work
[4] = single dose, cited from earlier work
M. smegmatis = assay: microbe, parasite or virus in culture; type: cell-based, Mycobacterium smegmatis; conditions: strain mc^2155, WT
M. tuberculosis = assay: microbe, parasite or virus in culture; type: cell-based, Mycobacterium tuberculosis; conditions: for MIC90: Mycobacterium tuberculosis
[5] = rats; cited from earlier work
S. lividans = assay: microbe, parasite or virus in culture; type: cell-based, Streptomyces lividans; conditions: strain 1326, WT
P. aeruginosa = assay: microbe, parasite or virus in culture; type: cell-based, Pseudomonas aeruginosa; conditions: strain PA01 (H103), WT
[6] = Dogs, 250 μg/kg oral; cited from earlier work
R. jostii = assay: microbe, parasite or virus in culture; type: cell-based, Rhodococcus jostii; conditions: strain RHA1, WT
M. bovis BCG = assay: microbe, parasite or virus in culture; type: cell-based, Mycobacterium bovis
E. coli = assay: microbe, parasite or virus in culture; type: cell-based, Escherichia coli; conditions: strain O157:H7, WT
A. baumannii = assay: microbe, parasite or virus in culture; type: cell-based, Acinetobacter baumannii; conditions: strain ATCC 1960, WT
[7] = system: representative Gram-positive and Gram-negative bacteria; type: cell-based

Compound: Abamectin
- MIC (M. avium; M. avium 702): >256 µg/mL
- MIC (M. avium; M. avium 715): >256 µg/mL
- MIC (M. gordonae): 16 µg/mL
- MIC (M. phlei): >256 µg/mL
- MIC (M. chelonae): 16 µg/mL
- MIC (M. microti; M. microti 1601): 16 µg/mL
- MIC (M. microti; M. microti 1608): 64 µg/mL
- MIC (M. microti; M. microti Ov254): 256 µg/mL
- MIC (M. aurum): 8 µg/mL
- MIC (M. intracellulare; M. intracellulare 1403 ATCC35761): 16 µg/mL
- MIC (M. intracellulare; M. intracellulare 1403 Trudeau): 16 µg/mL
- MIC (M. intracellulare; M. intracellulare D673): 32 µg/mL
- MIC (M. intracellulare; M. intracellulare FM): 16 µg/mL

Compound: CO/N=C1\C[C@]2(C[C@@H]3C[C@@H](C/C=C(\C)C[C@@H](C)/C=C/C=C4\CO[C@@H]5[C@H](O)C(C)=C[C@@H](C(=O)O3)[C@]45O)O2)O[C@H](/C(C)=C/C(C)C)[C@H]1C [Moxidectin]
- MIC90 (S. aureus; Staphylococcus aureus, ATCC25923, read-out: In vitro MIC90): > 256 µg/mL
- MIC90 (K. rhizophila; Kocuria rhizophila, read-out: In vitro MIC90): > 256 µg/mL
- LD50 [1]: 84 mg/kg body weight
- AUC ([2]; 3 mg fast): 1442 ng·h/mL
- Cmax ([2]; 3 mg fast): 22.4 ng/mL
- T½ ([2]; 3 mg fast): 33.8 days
- AUC ([2]; 9 mg fast): 3024 ng·h/mL
- Cmax ([2]; 9 mg fast): 57.9 ng/mL
- T½ ([2]; 9 mg fast): 34.6 days
- AUC ([2]; 18 mg fast): 5856 ng·h/mL
- Cmax ([2]; 18 mg fast): 141 ng/mL
- T½ ([2]; 18 mg fast): 22 days
- AUC ([2]; 36 mg fast): 10824 ng·h/mL
- Cmax ([2]; 36 mg fast): 289 ng/mL
- T½ ([2]; 36 mg fast): 20.2 days
- AUC ([2]; 36 mg fed): 14976 ng·h/mL
- Cmax ([2]; 36 mg fed): 296 ng/mL
- T½ ([2]; 36 mg fed): 25.7 days
- MIC (M. avium; Mycobacterium avium): > 256 µg/mL
- MIC (M. avium; Mycobacterium avium, ATCC25291, M. avium ATCC 25291, read-out: MIC): > 128 µg/mL
- MIC (M. avium; Mycobacterium avium, M. avium 715): > 256 µg/mL
- MIC (M. gordonae; Mycobacterium gordonae, read-out: MIC): 4 µg/mL (≈ 6.25 µM)
- toxicity in dogs lacking MDR1 P-glycoprotein / homozygous MDR1 mutation [3]: without any signs of toxicosis
- dose reported safe in humans ([4]; clinical studies): up to 36 mg
- dose reported not safe in humans [4]: 54 mg
- MIC90 (M. smegmatis; Mycolicibacterium smegmatis, read-out: In vitro MIC90): 4 µg/mL (≈ 6.25 µM)
- MIC90 (M. tuberculosis; ERDMAN, read-out: In vitro MIC90, strain Erdman, WT): 2 to 4 µg/mL (≈ 3.13 to 6.25 µM)
- MIC90 (M. tuberculosis; read-out: In vitro MIC90, strain 1254, WT): 4 µg/mL (≈ 6.25 µM)
- MIC90 (M. tuberculosis; read-out: In vitro MIC90, strain BC-DS1 (drug-susceptible)): 4 µg/mL (≈ 6.25 µM)
- MIC90 (M. tuberculosis; read-out: In vitro MIC90, strain BC-DS3 (drug-susceptible)): 2 µg/mL (≈ 3.13 µM)
- MIC90 (M. tuberculosis; read-out: In vitro MIC90, strain BC-DS4 (drug-susceptible)): 2 µg/mL (≈ 3.13 µM)
- MIC90 (M. tuberculosis; read-out: In vitro MIC90, strain BC-DS5 (drug-susceptible)): 2 to 4 µg/mL (≈ 3.13 to 6.25 µM)
- MIC90 (M. tuberculosis; read-out: In vitro MIC90, strain CDC 1551, WT): 2 µg/mL (≈ 3.13 µM)
- MIC (M. phlei; Mycolicibacterium phlei, read-out: MIC): 8 µg/mL (≈ 12.5 µM)
- LD50 [5]: 106 mg/kg body weight
- MIC90 (S. lividans; Streptomyces lividans, read-out: In vitro MIC90): > 256 µg/mL
- MIC (M. chelonae; Mycobacteroides chelonae, read-out: MIC): 4 µg/mL (≈ 6.25 µM)
- MIC90 (P. aeruginosa; Pseudomonas aeruginosa, read-out: In vitro MIC90): > 256 µg/mL
- AUC [6]: 11800 ng·h/mL
- Cmax [6]: 234 ng/mL
- T½ [6]: 25.9 days
- MIC (M. microti; M. microti 1601, read-out: MIC): 4 µg/mL (≈ 6.25 µM)
- MIC (M. microti; M. microti 1608, read-out: MIC): 4 µg/mL (≈ 6.25 µM)
- MIC (M. microti; M. microti Ov254, read-out: MIC): 4 µg/mL (≈ 6.25 µM)
- MIC90 (R. jostii; Rhodococcus jostii, read-out: In vitro MIC90): > 256 µg/mL
- MIC90 (M. bovis BCG; Mycobacterium tuberculosis variant bovis BCG, BCG, read-out: In vitro MIC90): 4 µg/mL (≈ 6.25 µM)
- MIC90 (E. coli; Escherichia coli, read-out: In vitro MIC90): > 256 µg/mL
- MIC (M. aurum; Mycolicibacterium aurum, read-out: MIC): 1 µg/mL (≈ 1.56 µM)
- MIC90 (A. baumannii; Acinetobacter baumannii, ATCC1960, read-out: In vitro MIC90): > 256 µg/mL
- MIC (M. intracellulare; Mycobacterium intracellulare, M. intracellulare D673): > 256 µg/mL
- MIC (M. intracellulare; Mycobacterium intracellulare, M. intracellulare FM): > 256 µg/mL
- MIC (M. intracellulare; Mycobacterium intracellulare, M. intracellulare 1403 ATCC35761, read-out: MIC): 16 µg/mL (≈ 25 µM)
- MIC (M. intracellulare; Mycobacterium intracellulare, M. intracellulare 1403 Trudeau, read-out: MIC): 32 µg/mL (≈ 50 µM)

Compound: CO[C@H]1C[C@H](O[C@H]2[C@H](C)O[C@@H](O[C@@H]3/C(C)=C/C[C@@H]4C[C@@H](C[C@]5(C=C[C@H](C)[C@@H](C6CCCCC6)O5)O4)OC(=O)[C@@H]4C=C(C)[C@@H](O)[C@H]5OC/C(=C\C=C\[C@@H]3C)[C@]54O)C[C@@H]2OC)O[C@@H](C)[C@@H]1O [Doramectin]
- In vitro MIC90 (S. aureus): >256 µg/mL
- In vitro MIC90 (K. rhizophila): >256 µg/mL
- Inhibitory effects [7]: not observed
- In vitro MIC90 (M. smegmatis): 128 µg/mL
- level of activity (M. tuberculosis; against all Mycobacterium species, MTT): lower levels of activity
- In vitro MIC90 (M. tuberculosis; strain 1254, WT): 8 to 16 µg/mL
- In vitro MIC90 (M. tuberculosis; strain CDC 1551, WT): 4 to 8 µg/mL
- In vitro MIC90 (M. tuberculosis; strain Erdman, WT): 8 µg/mL
- In vitro MIC90 (M. tuberculosis; strain H37Rv, WT): 8 µg/mL
- In vitro MIC90 (S. lividans): >256 µg/mL
- In vitro MIC90 (P. aeruginosa): >256 µg/mL
- In vitro MIC90 (R. jostii): >256 µg/mL
- In vitro MIC90 (M. bovis BCG; strain BCG Pasteur, WT): 8 µg/mL
- In vitro MIC90 (E. coli): >256 µg/mL
- In vitro MIC90 (A. baumannii): >256 µg/mL

— patent publication US9308215B2, “Avermectins and milbemycins as anti-mycobacterial agents” (priority 2013, dated 2016)
